# Calls of active or inactive are those of the source. The rule behind the calls is not given here.
# System: CCRIS mutagenicity, Ames/micronucleus/aberration tests
# Assay: CCRIS mutagenicity studies
# [1] = Test System: AMES SALMONELLA TYPHIMURIUM, Strain/Indicator: TA98, Metabolic Activation: NONE, Method: PREINCUBATION
# [2] = Test System: AMES SALMONELLA TYPHIMURIUM, Strain/Indicator: TA98, Metabolic Activation: NONE, Method: STANDARD PLATE
# [3] = Test System: AMES SALMONELLA TYPHIMURIUM, Strain/Indicator: TA100, Metabolic Activation: NONE, Method: PREINCUBATION
# [4] = Test System: AMES SALMONELLA TYPHIMURIUM, Strain/Indicator: TA100, Metabolic Activation: NONE, Method: STANDARD PLATE
# [5] = Test System: AMES SALMONELLA TYPHIMURIUM, Strain/Indicator: TA1535, Metabolic Activation: NONE, Method: PREINCUBATION
# [6] = Test System: AMES SALMONELLA TYPHIMURIUM, Strain/Indicator: TA1537, Metabolic Activation: NONE, Method: PREINCUBATION
# [7] = Test System: AMES SALMONELLA TYPHIMURIUM, Strain/Indicator: TA1538, Metabolic Activation: NONE, Method: STANDARD PLATE
# [8] = Test System: AMES SALMONELLA TYPHIMURIUM, Strain/Indicator: TA1538, Metabolic Activation: RAT, LIVER, S-9, AROCLOR 1254, Method: STANDARD PLATE
# [9] = Test System: AMES SALMONELLA TYPHIMURIUM, Strain/Indicator: TA100, Metabolic Activation: RAT, LIVER, S-9, PHENOBARBITAL AND 5,6-BENZOFLAVONE, Method: PREINCUBATION
structure (smiles),measurement,setting,value
O=c1[nH]c(=O)n([C@H]2C[C@H](O)[C@@H](CO)O2)cc1CCCl,mutagenic call,"End Point: IN VITRO MICRONUCLEUS, Test System: V79 CHINESE HAMSTER CELLS, Metabolic Activation: NONE",inactive; negative
same,mutagenic call,"End Point: IN VITRO MICRONUCLEUS, Test System: V79 CHINESE HAMSTER CELLS, Metabolic Activation: RAT, LIVER, S-9, AROCLOR 1254",inactive; negative
same,mutagenic call,"End Point: IN VIVO MICRONUCLEUS, Test System: BONE MARROW POLYCHROMATIC ERYTHROCYTES, Species: MOUSE, Strain/Sex: CD-1/MALE, FEMALE, Route: GAVAGE",inactive; negative
same,mutagenic call,"Test System: AMES SALMONELLA TYPHIMURIUM, Strain/Indicator: TA97, Metabolic Activation: NONE, Method: PREINCUBATION",inactive; negative
same,mutagenic call,"Test System: AMES SALMONELLA TYPHIMURIUM, Strain/Indicator: TA97, Metabolic Activation: RAT, LIVER, S-9, AROCLOR 1254, Method: PREINCUBATION",inactive; negative
same,mutagenic call,[1],inactive; negative
same,mutagenic call,[2],inactive; negative
same,mutagenic call,"Test System: AMES SALMONELLA TYPHIMURIUM, Strain/Indicator: TA98, Metabolic Activation: RAT, LIVER, S-9, AROCLOR 1254, Method: PREINCUBATION",inactive; negative
same,mutagenic call,"Test System: AMES SALMONELLA TYPHIMURIUM, Strain/Indicator: TA98, Metabolic Activation: RAT, LIVER, S-9, AROCLOR 1254, Method: STANDARD PLATE",inactive; negative
same,mutagenic call,[3],inactive; negative
same,mutagenic call,[4],inactive; negative
same,mutagenic call,"Test System: AMES SALMONELLA TYPHIMURIUM, Strain/Indicator: TA100, Metabolic Activation: RAT, LIVER, S-9, AROCLOR 1254, Method: PREINCUBATION",inactive; negative
same,mutagenic call,"Test System: AMES SALMONELLA TYPHIMURIUM, Strain/Indicator: TA100, Metabolic Activation: RAT, LIVER, S-9, AROCLOR 1254, Method: STANDARD PLATE",inactive; negative
same,mutagenic call,"Test System: AMES SALMONELLA TYPHIMURIUM, Strain/Indicator: TA102, Metabolic Activation: NONE, Method: PREINCUBATION",inactive; negative
same,mutagenic call,"Test System: AMES SALMONELLA TYPHIMURIUM, Strain/Indicator: TA102, Metabolic Activation: NONE, Method: STANDARD PLATE",active; positive
same,mutagenic call,"Test System: AMES SALMONELLA TYPHIMURIUM, Strain/Indicator: TA102, Metabolic Activation: RAT, LIVER, S-9, AROCLOR 1254, Method: PREINCUBATION",inactive; negative
same,mutagenic call,"Test System: AMES SALMONELLA TYPHIMURIUM, Strain/Indicator: TA102, Metabolic Activation: RAT, LIVER, S-9, AROCLOR 1254, Method: STANDARD PLATE",active; positive
same,mutagenic call,"Test System: AMES SALMONELLA TYPHIMURIUM, Strain/Indicator: TA104, Metabolic Activation: NONE, Method: PREINCUBATION",inactive; negative
same,mutagenic call,"Test System: AMES SALMONELLA TYPHIMURIUM, Strain/Indicator: TA104, Metabolic Activation: RAT, LIVER, S-9, AROCLOR 1254, Method: PREINCUBATION",inactive; negative
same,mutagenic call,[5],inactive; negative
same,mutagenic call,"Test System: AMES SALMONELLA TYPHIMURIUM, Strain/Indicator: TA1535, Metabolic Activation: NONE, Method: STANDARD PLATE",active; positive
same,mutagenic call,"Test System: AMES SALMONELLA TYPHIMURIUM, Strain/Indicator: TA1535, Metabolic Activation: RAT, LIVER, S-9, AROCLOR 1254, Method: PREINCUBATION",inactive; negative
same,mutagenic call,"Test System: AMES SALMONELLA TYPHIMURIUM, Strain/Indicator: TA1535, Metabolic Activation: RAT, LIVER, S-9, AROCLOR 1254, Method: STANDARD PLATE",active; positive
same,mutagenic call,[6],inactive; negative
same,mutagenic call,"Test System: AMES SALMONELLA TYPHIMURIUM, Strain/Indicator: TA1537, Metabolic Activation: NONE, Method: STANDARD PLATE",inactive; negative
same,mutagenic call,"Test System: AMES SALMONELLA TYPHIMURIUM, Strain/Indicator: TA1537, Metabolic Activation: RAT, LIVER, S-9, AROCLOR 1254, Method: PREINCUBATION",inactive; negative
same,mutagenic call,"Test System: AMES SALMONELLA TYPHIMURIUM, Strain/Indicator: TA1537, Metabolic Activation: RAT, LIVER, S-9, AROCLOR 1254, Method: STANDARD PLATE",inactive; negative
same,mutagenic call,"Test System: AMES SALMONELLA TYPHIMURIUM, Strain/Indicator: TA1538, Metabolic Activation: NONE, Method: PREINCUBATION",inactive; negative
same,mutagenic call,[7],inactive; negative
same,mutagenic call,"Test System: AMES SALMONELLA TYPHIMURIUM, Strain/Indicator: TA1538, Metabolic Activation: RAT, LIVER, S-9, AROCLOR 1254, Method: PREINCUBATION",inactive; negative
same,mutagenic call,[8],inactive; negative
same,mutagenic call,"Test System: CHINESE HAMSTER V-79, Strain/Indicator: V-79/8-AZAGUANINE, Metabolic Activation: NONE",active; positive
C1=Cc2c(ccc3nc4ccc5ccccc5c4cc23)CC1,mutagenic call,"Test System: AMES SALMONELLA TYPHIMURIUM, Strain/Indicator: TA98, Metabolic Activation: GUINEA PIG, LIVER, S-9, 3-METHYLCHOLANTHRENE, Method: STANDARD PLATE",active; positive
same,mutagenic call,"Test System: AMES SALMONELLA TYPHIMURIUM, Strain/Indicator: TA100, Metabolic Activation: GUINEA PIG, LIVER, S-9, 3-METHYLCHOLANTHRENE, Method: STANDARD PLATE",active; positive
C[C@H]1COc2c(C3(N)CC3)c(F)cc3c(=O)c(C(=O)O)cn1c23,mutagenic call,[1],inactive; negative
same,mutagenic call,"Test System: AMES SALMONELLA TYPHIMURIUM, Strain/Indicator: TA98, Metabolic Activation: RAT, LIVER, S-9, PHENOBARBITAL AND 5,6-BENZOFLAVONE, Method: PREINCUBATION",inactive; negative
same,mutagenic call,[3],inactive; negative
same,mutagenic call,[9],inactive; negative
same,mutagenic call,[5],inactive; negative
same,mutagenic call,"Test System: AMES SALMONELLA TYPHIMURIUM, Strain/Indicator: TA1535, Metabolic Activation: RAT, LIVER, S-9, PHENOBARBITAL AND 5,6-BENZOFLAVONE, Method: PREINCUBATION",inactive; negative
same,mutagenic call,[6],inactive; negative
same,mutagenic call,"Test System: AMES SALMONELLA TYPHIMURIUM, Strain/Indicator: TA1537, Metabolic Activation: RAT, LIVER, S-9, PHENOBARBITAL AND 5,6-BENZOFLAVONE, Method: PREINCUBATION",inactive; negative
same,mutagenic call,"Test System: E. COLI, Strain/Indicator: WP2 UVRA, Metabolic Activation: NONE, Method: PREINCUBATION",inactive; negative
same,mutagenic call,"Test System: E. COLI, Strain/Indicator: WP2 UVRA, Metabolic Activation: RAT, LIVER, S-9, PHENOBARBITAL AND 5,6-BENZOFLAVONE, Method: PREINCUBATION",inactive; negative
Cc1cc(=O)oc2c3c4c(cc12)CCCN4CCC3,mutagenic call,[7],inactive; negative
same,mutagenic call,[8],active; positive
O=[N+]([O-])c1cc(Cl)cc(Cl)c1O,mutagenic call,[1],inactive; negative
same,mutagenic call,[2],inactive; negative
same,mutagenic call,[3],inactive; negative
same,mutagenic call,[4],inactive; negative
same,mutagenic call,"Test System: CHINESE HAMSTER V-79, Strain/Indicator: V-79/6-THIOGUANINE, Metabolic Activation: NONE",inactive; negative
N[C@H](CS)C(=O)O,mutagenic call,"Test System: AMES SALMONELLA TYPHIMURIUM, Strain/Indicator: TA92, Metabolic Activation: NONE, Method: STANDARD PLATE",inactive; negative
same,mutagenic call,"Test System: AMES SALMONELLA TYPHIMURIUM, Strain/Indicator: TA92, Metabolic Activation: RAT, KIDNEY, S-9, Method: STANDARD PLATE",inactive; negative
same,mutagenic call,"Test System: AMES SALMONELLA TYPHIMURIUM, Strain/Indicator: TA92, Metabolic Activation: RAT, LIVER, S-9, Method: STANDARD PLATE",inactive; negative
same,mutagenic call,[4],inactive; negative
same,mutagenic call,"Test System: AMES SALMONELLA TYPHIMURIUM, Strain/Indicator: TA100, Metabolic Activation: RAT, KIDNEY, S-9, Method: STANDARD PLATE",inactive; negative
same,mutagenic call,"Test System: AMES SALMONELLA TYPHIMURIUM, Strain/Indicator: TA100, Metabolic Activation: RAT, LIVER, S-9, Method: STANDARD PLATE",inactive; negative
Nc1cccc2ncc(F)cc12,mutagenic call,[9],active; positive
CC(=O)/C=C/CCC(=O)/C=C/C(=O)O[C@@H](CCC(=O)/C=C/C(=O)O)CC(C)=O,mutagenic call,"Test System: CHINESE HAMSTER V-79, Strain/Indicator: V-79 (HPRT)/6-THIOGUANINE, Metabolic Activation: NONE",active; positive

# Source: PubChem BioAssay AID1259407 (Chemical Carcinogenesis Research Information System (CCRIS), 2018)
